# According to patent US20250129095A1, “ANNULATED 2-AMINO-3-CYANO THIOPHENES AND DERIVATIVES FOR THE TREATMENT OF CANCER” (Boehringer Ingelheim Int'l GmbH Corp., priority 2021, published 2025):
# Key:
# KRAS (G12V)::SOS1 = target: T1, KRAS (G12V)::SOS1 (Homo sapiens, UniProt P01116, C118S/G12V); experiment: KRAS::SOS1 AlphaScreen binding assay, KRAS G12V
# T1 construct: KRAS (G12V) 1-169, N-terminal 6His-tag for purification, cleaved off; 6His-tag (N, cleaved yes); TEV cleavage site; made in house
# T1 sequence (P01116 1-169 isoform P01116-2 G12V/C118S): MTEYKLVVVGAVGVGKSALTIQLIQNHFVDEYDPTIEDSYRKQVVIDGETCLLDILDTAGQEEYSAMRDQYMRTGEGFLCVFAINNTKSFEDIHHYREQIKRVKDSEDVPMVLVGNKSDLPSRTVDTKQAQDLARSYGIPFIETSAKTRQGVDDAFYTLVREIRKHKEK
# Source text: (§1) This assay can be used to examine the potency with which compounds according to the invention binding to (mutated) KRAS inhibit the protein-protein interaction between SOS1 and (mutated) KRAS e.g., KRAS WT, KRAS G12C, KRAS G12D, KRAS G12V, KRAS G13D. […] Low IC50 values in this assay setting are indicative of strong inhibition of protein-protein interaction between SOS1 and KRAS:
# (§2) These assays measure the inhibitory effect of compounds on KRAS mutant protein-protein interactions using the Alpha Screen technology by Perkin Elmer
# (§3) The following (mutant) enzyme forms of KRAS and interacting proteins are used in these assays at the given concentrations: • KRAS (G12D) 1-169, N-terminal 6His-tag, C-terminal avi-tag (Xtal BioStructures, Inc.); final assay concentration 10 nM and SOS1 564-1049, N-terminal 229 GST-tag, TEV cleavage site (Viva Biotech Ltd); final assay concentration 5 nM; • KRAS (G12C) 1-169, N-terminal 6His-tag for purification, cleaved off, C-terminal avi-tag, biotinylated, mutations: C51S, C80L, C118S (in house); final assay concentration 7.5 nM and SOS1 564-1049, N-terminal 229 GST-tag, TEV cleavage site (Viva Biotech Ltd); final assay concentration 5 nM; • KRAS (G12V) 1-169, N-terminal 6His-tag for purification, cleaved off, C-terminal avi-tag, biotinylated, TEV cleavage site, mutation: C118S, GDP loaded (in house); final assay concentration 10 nM and SOS1 564-1049, N-terminal 229 GST-tag, TEV cleavage site (Viva Biotech Ltd); final assay concentration 10 nM; • KRAS (G13D) 1-169, N-terminal 6His-tag for purification, cleaved off, C-terminal avi-tag, biotinylated, TEV cleavage site, mutation: C118S, GDP loaded (in house); final assay concentration 10 nM and SOS1 564-1049, N-terminal 229 GST-tag, TEV cleavage site (Viva Biotech Ltd); final assay concentration 10 nM; • KRAS (WT) 1-169, N-terminal 6His-tag for purification, cleaved off, C-terminal avi-tag, biotinylated, TEV cleavage site, mutation: C118S, GDP loaded (in house); final assay concentration 10 nM and SOS1 564-1049, N-terminal 229 GST-tag, TEV cleavage site (Viva Biotech Ltd); final assay concentration 10 nM.
# (§4) Test compounds dissolved in DMSO are dispensed onto assay plates (Proxiplate 384 PLUS, white, PerkinElmer; 6008289) using an Access Labcyte Workstation with the Labcyte Echo 55×. For the chosen highest assay concentration of 100 μM, 150 nL of compound solution are transferred from a 10 mM DMSO compound stock solution. A series of eleven fivefold dilutions per compound are transferred to the assay plate, compound dilutions are tested in duplicates. DMSO are added as backfill to a total volume of 150 nL.
# (§5) The assays run on a fully automated robotic system in a darkened room below 100 Lux. To 150 nl of compound dilution 10 μl of a mix including KRAS mutant protein, SOS1 (final assay concentrations see above) and GDP nucleotide (Sigma G7127; final assay concentration 10 μM) in assay buffer (1×PBS, 0.1% BSA, 0.05% Tween 20) are added into columns 1-24.
# (§6) After 30 minutes incubation time 5 μl of Alpha Screen bead mix in assay buffer are added into columns 1-23. Bead mix consists of AlphaLISA Glutathione Acceptor Beads (PerkinElmer, Cat No AL109) and AlphaScreen Streptavidin Donor Beads (PerkinElmer Cat No 6760002) in assay buffer at a final assay concentration of 10 μg/ml each.
# (§7) Plates are kept at room temperature in a darkened incubator. After an additional 60 minutes incubation time the signal is measured in a PerkinElmer Envision HTS Multilabel Reader using the AlphaScreen specs from PerkinElmer.
# (§8) Each plate contains up to 16 wells of a negative control depending on the dilution procedure (platewise or serial) (DMSO instead of test compound; with KRAS mutant::SOS1 GDP mix and bead mix; column 23) and 16wells of a positive control (DMSO instead of test compound; with KRAS mutant::SOS1 GDP mix w/o bead mix; column 24).
# (§9) As internal control known inhibitors of KRAS mutant::SOS1 interaction can be measured on each compound plate. […]
# KRAS (WT)::SOS1 = target: T2, KRAS (WT)::SOS1 (Homo sapiens, UniProt P01116, C118S); experiment: KRAS::SOS1 AlphaScreen binding assay, KRAS WT
# T2 construct: KRAS (WT) 1-169, N-terminal 6His-tag for purification, cleaved off; 6His-tag (N, cleaved yes); TEV cleavage site; made in house
# T2 sequence (P01116 1-169 isoform P01116-2 C118S): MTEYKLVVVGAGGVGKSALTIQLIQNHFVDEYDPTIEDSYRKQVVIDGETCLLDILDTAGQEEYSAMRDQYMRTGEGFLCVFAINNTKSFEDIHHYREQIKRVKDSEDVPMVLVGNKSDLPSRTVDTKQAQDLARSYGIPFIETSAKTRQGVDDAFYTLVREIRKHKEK
# Source text: as §1, §2, §3, §4, §5, §6, §7, §8, §9
# Caco-2 assay = format: in vitro ADME; details: human, 10 μM test compound, pH 7.4; for Papp A→B at 90 min, 10 μM: Caco-2, apical to basolateral (a-b) permeability, read-out: Caco PappAB; for efflux ratio at 90 min, 10 μM: Caco-2 efflux ratio PappBA/PappAB, read-out: Caco ER
# Source text: The assay provides information on the potential of a compound to pass the cell membrane, on the extent of oral absorption as well as on whether the compound is actively transported by uptake and/or efflux transporters. Permeability measurements across polarized, confluent Caco-2 cell monolayers grown on permeable filter supports (Corning, catalog #3391) are used. […] The receiver and donor compartments contain 0.25% bovine serum albumine (BSA) in assay buffer. Passive diffusion and/or active transport of compounds across the monolayer is measured in both apical to basolateral (a-b) and basolateral to apical (b-a) direction. a-b permeability (PappAB) represents drug absorption from the intestine into the blood and b-a permeability (PappBA) drug secretion from the blood back into the intestine via both passive permeability as well as active transport mechanisms mediated by efflux and uptake transporters that are expressed on the Caco-2 cells. After a pre-incubation of 25-30 min at 37° C., at predefined time points (0, 30, 60 and 90 min), samples were taken from the receiver and donor compartment, respectively.
# Concentrations of test compounds in samples were measured by HPLC/MS/MS, samples from the donor compartment were diluted 1:50 (v:v) with assay buffer, samples from receiver compartment were measured without dilution.
# Apparent permeabilities in a-b (PappAB) and b-a (PappBA) directions are calculated according to the formula:
# [formula] • Vrec [mL]: buffer volume in receiver compartment • Cdon [pmol/mL]: concentration of test compound in donor compartment at t=0 • ΔCrec: difference between concentrations of test compound in receiver compartment at start and end of incubation time • Δt: Incubation time • Vrec·ΔCrec/Δt [[…]]: Amount of compound transferred to receiver compartment per time • A [cm^2]: filter surface
# Caco-2 efflux ratios (ER) are calculated as the ratio of PappBA/PappAB.
SMILES,IC50 (KRAS (G12V)::SOS1),IC50 (KRAS (WT)::SOS1),"Papp A→B at 90 min, 10 μM (Caco-2 assay)","efflux ratio at 90 min, 10 μM (Caco-2 assay)"
"C[C@H](Oc1cc(O[C@H]2CNC(C)(C)C2)nc(-c2noc3c2CCC[C@@]32CCCc3sc(N)c(C#N)c32)n1)[C@@H]1CCCN1C (single isomer, unassigned) [II-8]",10 nM,,,
C[C@H](Oc1cc(Oc2nccs2)nc(-c2onc3c2CCC[C@@]32CCCc3sc(N)c(C#N)c32)n1)[C@@H]1CCCN1C [Example I-1],2 nM,4 nM,,
C[C@H](Oc1cc(Oc2cccnc2)nc(-c2onc3c2CCC[C@@]32CCCc3sc(N)c(C#N)c32)n1)[C@@H]1CCCN1C [Example I-2],1 nM,4 nM,,
C[C@H](Oc1cc(Oc2cncnc2)nc(-c2onc3c2CCC[C@@]32CCCc3sc(N)c(C#N)c32)n1)[C@@H]1CCCN1C [Example I-3],,2 nM,18 ×10⁻⁶ cm/s,1.3
COC[C@H](C)Nc1cc(O[C@@H](C)[C@@H]2CCCN2C)nc(-c2onc3c2CCC[C@@]32CCCc3sc(N)c(C#N)c32)n1 [Example I-5],,,4.3 ×10⁻⁶ cm/s,7.7
C[C@H](Oc1cc(Nc2ccccn2)nc(-c2onc3c2CCC[C@@]32CCCc3sc(N)c(C#N)c32)n1)[C@@H]1CCCN1C [Example I-6],,,,2.5
C[C@H](Oc1cc(OCC2(N(C)C)COC2)nc(-c2onc3c2CCC[C@@]32CCCc3sc(N)c(C#N)c32)n1)[C@@H]1CCCN1C [Example I-8],3 nM,,,
C[C@H](Oc1cc(Oc2cncnc2)nc(-c2noc3c2CCC[C@@]32CCCc3sc(N)c(C#N)c32)n1)[C@@H]1CCCN1C [II-1],,3 nM,17 ×10⁻⁶ cm/s,1.5
C[C@H](Oc1cc(Oc2nccs2)nc(-c2noc3c2CCC[C@@]32CCCc3sc(N)c(C#N)c32)n1)[C@@H]1CCCN1C [II-2],,,,0.5
C[C@H](Oc1cc(O[C@H]2CCOC2)nc(-c2noc3c2CCC[C@@]32CCCc3sc(N)c(C#N)c32)n1)[C@@H]1CCCN1C [II-4],,,8.6 ×10⁻⁶ cm/s,3.7
COCCOc1cc(O[C@@H](C)[C@@H]2CCCN2C)nc(-c2noc3c2CCC[C@@]32CCCc3sc(N)c(C#N)c32)n1 [II-5],,,14 ×10⁻⁶ cm/s,1.4
C[C@H](Oc1cc(OCCO)nc(-c2noc3c2CCC[C@@]32CCCc3sc(N)c(C#N)c32)n1)[C@@H]1CCCN1C [II-6],,,1.2 ×10⁻⁶ cm/s,20.8
C[C@H](Oc1cc(O[C@@H]2CNC2(C)C)nc(-c2noc3c2CCC[C@@]32CCCc3sc(N)c(C#N)c32)n1)[C@@H]1CCCN1C [II-9],3 nM,2 nM,0.2 ×10⁻⁶ cm/s,132
